Measurements taken from patent US20070123555A1, “PREVENTION AND TREATMENT OF HEARING DISORDERS” (Cypress Bioscience, Inc., priority 2005, published 2007).
Entries after “also recorded” stand apart in the source; their conditions may differ. Like-named read-outs stand apart in the source and are kept apart here.

What was measured:
[1] = target: CYP2D6 (Homo sapiens, UniProt P10635); settings: cited from earlier work
[2] = system: CYP2D6; settings: in vivo; cited from earlier work
[3] = system: cochlear sensory cells; settings: perfusion into the cochlea via osmotic minipump; cited from earlier work
[4] = system: cochlea; settings: local administration; cited from earlier work
[5] = system: permanent threshold shift; settings: 6.7 mmol daily, versus placebo (sodium aspartate); rifle noise six days per week for eight weeks; cited from earlier work
[6] = system: noise-induced temporary threshold shift; settings: daily ingestion of 122 mg for 10 days; cited from earlier work
[7] = system: outer hair cells of cochlear explants; experiment: Cochlear explant cultures challenged with cisplatin, outer hair cell damage; type: cell-based, Sprague-Dawley rats
Excerpt: Explants of sensory epithelium from the basal turn of postnatal day 5 (p5) Sprague-Dawley rats were isolated using the methods of Van De Water and Sobkowicz (Van d Water T., Ruben R. J. (1974) “Growth of the inner ear in organ culture,” Ann. Otol. Rhinol. Laryngol., 83:1-16; Sobkowicz H. M., Loftus J. M., Slapnick S. M. (1993) “Tissue culture of the organ of Corti.,” Acta. Suppl. 502:3-36). Explants were maintained in Dulbecco's Modified Eagle's medium with 10% fetal bovine serum and 30 U/ml penicillin. HEPES buffer was added to a concentration of 25 mM and the glucose concentration increased to 6 mg/ml to enhance neuronal survival. Each 15 mm dish containing 250 μl of medium was maintained in an incubator at 37° C. with 5% CO2 and 95% humidity.
Toxicity-inducers (gentamicin or cisplatin, 1-100 μM) were exposed to the medium 12-24 h following plating for 48 h. Concentrations of gentamicin or cisplatin were employed that produced approximately 50% loss of outer hair cells, which permitted for assessments of either increases or decreases in outer hair cell damage.
Test compounds were applied to the cultures for 12 h, and then challenged with medium containing gentamicin or cisplatin plus the test compound for an additional 48 h, followed by fixation and evaluation.
At the end of culture, free floating explants were fixed with 4% paraformaldehyde and 1% glutaraldehyde in phosphate-buffered saline. The explants were then permeabilized with 1 % Tween-20 in phosphate-buffered saline. The explants were then stained with conjugated phalloidin-rhodamine probe in phosphate-buffered saline, washed twice, and mounted between two cover slips in a 1:3 mixture of phosphate-buffered saline/glycerol. Explants were imaged by light and fluorescence microscopy and by laser confocal microscopy to assess the degree of damage to the outer hair cells.
The results of one such test, employing cisplatin as an ototoxic agent and nicergoline as a test compound, are shown in FIG. 1. The control cultures contained no cisplatin and no nicergoline. […]

Chain of CYP2D6 (Homo sapiens, UniProt P10635) (P10635 whole entry): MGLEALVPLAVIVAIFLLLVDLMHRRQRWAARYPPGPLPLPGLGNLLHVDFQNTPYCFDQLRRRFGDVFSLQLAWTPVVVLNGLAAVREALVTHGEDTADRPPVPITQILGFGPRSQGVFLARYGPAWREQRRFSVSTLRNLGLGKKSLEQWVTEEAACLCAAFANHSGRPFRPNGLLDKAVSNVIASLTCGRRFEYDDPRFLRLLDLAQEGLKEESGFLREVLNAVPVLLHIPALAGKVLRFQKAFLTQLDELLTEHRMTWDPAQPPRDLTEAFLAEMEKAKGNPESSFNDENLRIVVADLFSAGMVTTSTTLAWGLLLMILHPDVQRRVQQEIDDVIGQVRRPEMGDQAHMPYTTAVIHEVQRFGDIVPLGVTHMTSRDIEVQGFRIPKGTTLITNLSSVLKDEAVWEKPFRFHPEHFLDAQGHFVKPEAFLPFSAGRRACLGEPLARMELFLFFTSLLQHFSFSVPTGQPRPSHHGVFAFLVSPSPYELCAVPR

Question: With CO[C@]12C[C@@H](CO)CN(C)[C@@H]1Cc1cn(C)c3cccc2c13 [MMDL, 1-methyl-10-α-methoxy-9,10-dihydrolysergol] as the compound, how does the “level in blood plasma after nicergoline dosing” value ([1]; in vivo) read?
Answer: very little MMDL

Question: And the “level in plasma after nicergoline dosing” value [2]?
Answer: relatively high concentrations of MMDL

Question: For Nc1nc2ccc(OC(F)(F)F)cc2s1 [riluzole, 2-amino-6-trofluoromethoxybenzothiazole], which “effect on cochlear damage after acoustic trauma” value [3] is on record?
Answer: prevents mitochondrial damage and subsequent translocation of cytochrome c, DNA fragmentation and hair cell degeneration

Question: For CCN(CC)CCn1c(=O)c(Cc2ccc(OC)cc2)nc2ccccc21 [caroverine, 1-[2-(diethylamino)ethyl]-3-[(4-methoxyphenyl)methyl]-2-(1H)-quinoxalinone], which “protection of cochlea from noise trauma” value [4] is on record?
Answer: protection of cochlea from noise trauma

Question: Which “effect on permanent threshold shift” value [5] does the source give for N[C@@H](CC(=O)[O-])C(=O)[O-].[Mg+2] [magnesium aspartate] here?
Answer: significant effect on permanent threshold shift

Question: Which “effect on noise-induced temporary threshold shift” value [6] does the source give for [Mg] [magnesium] here?
Answer: protect against noise-induced temporary threshold shift

Question: With CO[C@]12C[C@@H](CO)CN(C)[C@@H]1Cc1c[nH]c3cccc2c13 [MDL, 10-α-methoxy-9,9-dihydrolysergol] as the compound, how does the “level in plasma after nicergoline dosing” value [2] read?
Answer: low concentration of MDL

Question: Which results are given for CO[C@]12C[C@@H](COC(=O)c3cncc(Br)c3)CN(C)[C@@H]1Cc1cn(C)c3cccc2c13 [nicergoline]?
Answer: concentrations at which nicergoline itself is non-toxic to cochlear cultures ([7]; 0 μg/ml cisplatin, 10 μM nicergoline, 5 cultures): up to 10 μM; protection against toxic effects of cisplatin ([7]; 2 μg/ml cisplatin, nicergoline 10 nM, 1 μM or 10 μM, FIG. 1): protects cochlear ear explants from chemically-induced damage by cisplatin; also recorded: exerting protection against the toxic effects of cisplatin at all tested concentrations; concentration providing maximum protection from cisplatin-induced cell death ([7]; cisplatin 2 μg/ml (sentence prints 2 μM), test compound 12 h, then with cisplatin 48 h, 5 cultures each): about 1 μM; level in blood plasma after nicergoline dosing ([1]; individuals having normal CYP2D6 function): almost no detectable nicergoline in blood plasma
